From patent US9657071B2, “IgE peptide vaccine” (NIPPON ZENYAKU KOGYO CO., LTD., priority 2012, dated 2017)

Assays:
Assay type in all cases: in vivo
peptide-specific IgG = experiment: Peptide-specific IgG in serum of dogs given IgE peptide vaccine (ELISA); conditions: dog
Description: The peptide used was MOUSE CH3-4-17-11 (mouse CH3 region amino acid sequence) (SEQ ID NO: 27). 2 mL (500 μg) of a solution of the peptide (concentration: 250 μg/mL) and 2 mL of a complete adjuvant (DIFCO ADJUVANT COMPLETE FREUND, Becton, Dickinson and Company Japan) were dispensed to microtubes. Liquids (4 mL per animal) emulsified by shaking for 15 minutes in a high-speed shaker were used as IgE peptide vaccines.
The animals used were 1 male and 7 females of 5- to 7-month-old beagles and were divided into an administration group (n=4; 08-33, 08-42, 08-43, and 08-44) and a non-administration group (n=4; 08-45, 08-46, 08-47, and 08-48).
The peptide was administered at days 0 (test start date), 14, and 28 in the first course and further at days 106 and 117 in the second course. The test substance was subcutaneously administered to the necks of the 4 animals in the administration group. The non-administration group was untreated.
At days 0, 14, 28, 42, 56, 70, 77, 84, 98, 106, 117, 131, 145, and 152 (4 time points (0, 14, 28, and 42) were excluded for the non-administration group), blood was collected from the jugular vein of each individual using a syringe. After separation of serum, the serum was used to measure peptide-specific IgG concentrations and IgE-specific IgG concentrations in the serum.
Each antigenic protein (MOUSE CH3-4-17-11 for peptide-specific IgG assay, and human IgE for IgE-specific IgG assay) was prepared at 1 μg/mL in an immobilization buffer (0.05 M carbonate buffer, pH 9.6), then added at a concentration of 100 μL/well to an ELISA plate, and left overnight at 4° C. The immobilization plate was washed once with PBS-T (0.05%). A blocking solution (4× Block Ace, Snow Brand Milk Products Co., Ltd.; UK-B80) was added thereto at a concentration of 200 μL/well. The plate was blocked by incubation at 37° C. for 1.5 hours. The serum was diluted 5000-fold with a diluent (PBS-T:Block Ace=9:1) and used. […] Then, the measurement was performed using a plate reader (Bio-Rad Laboratories, Inc.; model 680) (dual: measurement: 450 nm, control: 570 nm).

dog IgE = experiment: Reactivity of serum of peptide-immunized rabbit with dog IgE (ELISA); conditions: 500 μg peptide + complete adjuvant s.c.
Description: (§1) 2 mL of the 250 μg/mL peptide (a total of 500 μg) used in Example 2 was mixed with an equal amount of a complete adjuvant (a total of 4 mL). Each rabbit was immunized with this mixture by the subcutaneous administration (amount of the peptide: 500 μg) at day 0 and weeks 2, 4, 6, and 8. Blood was collected 5 weeks after the week-8 administration (week 13 counted from day 0). Booster immunization was performed at week 14 counted from day 0, and blood was further collected 2 weeks thereafter (week 16 counted from day 0). Antibody titers in the collected blood were measured by ELISA. The serum of a rabbit that received no peptide was used as a control.
(§2) ELISA was performed by the following method: each […] recombinant CH3 solution of dog IgE, human IgE, mouse IgE, dog IgG, and cat IgE was immobilized at a concentration of 100 μL/well (100 ng/well) to a plate. The serum collected from the immunized rabbit was used (×200 to ×102400) as a primary antibody. An enzyme-labeled anti-rabbit IgG antibody (Zymed Laboratories Inc.) was used as a secondary antibody.

human IgE = experiment: Reactivity of serum of peptide-immunized rabbit with human IgE (ELISA); conditions: 500 μg peptide + complete adjuvant s.c.
Description: as §1, §2

Chain of dog IgE (as listed by the source): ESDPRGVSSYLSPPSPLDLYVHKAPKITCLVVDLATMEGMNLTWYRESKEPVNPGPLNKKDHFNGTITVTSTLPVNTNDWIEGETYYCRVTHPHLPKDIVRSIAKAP

Sequence: QEKKTSVSASQWYTKHHNNATTSIT (listed as Mus musculus) [MOUSE CH3-4-17-11]
- peptide-specific IgG concentrations in serum (O.D. values), one animal (08-44) (peptide-specific IgG; s.c., day 117 or later (second course)): ≥ 1.0 O.D.
- peptide-specific IgG in serum, administration group versus non-administration group (peptide-specific IgG; day 77, p<0.05): significantly higher
- level of IgG antibody against the peptide (peptide-specific IgG; summary of FIG. 6): increased
- response of immobilized dog IgE to peptide-administered rabbit serum (dog IgE): responded
- response of immobilized human IgE to peptide-administered rabbit serum (human IgE): responded
